Experimental data from patent publication US4820712A, “Sparsomycin (SC-RS) compounds having antitumor activity, a process for their preparation and pharmaceutical compositions containing sparsomycin (SC-RS) compounds” (priority 1986, dated 1989).
Values after ≈ are worked out from the molar mass of the structure shown. Where two headings read alike, the source gives them in different places.

Tests used:
L1210 leukemia = experiment: in vivo antitumor assay, L1210 leukemia; set-up: species or system CDF1 mice
Experimental: (§1) The antitumor activity of the present compounds has also been investigated by in vivo assays. In the assays, mice were treated for nine days in succession, starting at 24 hours after the time of tumor implant.
(§2) The results are shown in tables 4, 5 and 6 and represent the number of tumor-bearing mice surviving after administration of optimal doses of the test compound, expressed as a treatment/control (T/C×100%) ratio. In the tables, information is provided with respect to the sex, dose, weight loss of treated animals compared to control animals, and the number of survivors in groups of 6 mice.

P388 leukemia = experiment: in vivo antitumor assay, P388 leukemia; set-up: species or system CDF1 mice; details: for T/C (survival, treatment/control x 100%): ip daily x9, optimal dose mg/kg: sparsomycin 0.125, n-octyl 22.5, benzyl 2.0, 2e 20.0
Experimental: as §1, §2

acute toxicity LD50 = type: in vivo, mice; details: mouse, in vivo, ip, daily x9 injections, mice; 95% confidence interval given; read-out: LD 50 in mg/kg/inj i.p. in mice
Description: It appears therefrom that ala-sparsomycin is about 9× less toxic than sparsomycin.

Leukemia L 1210 cells = experiment: in vitro clonogenic L1210 assay (inhibition of colony formation in soft agar); type: cell-based; details: Mus musculus, L1210, 72 h, read-out: ID50 (dose giving 50% inhibition of L1210 colony formation)
Experimental: The in vitro clonogenic assay was effected in Leukemia L 1210 cells in soft agar medium (0.3%). […] In the analysis, the inhibition of the L 1210 colony formation by sparsomycin and derivatives thereof is determined for various concentrations, and the dose giving 50% inhibition of the colony formation, as compared with non-treated control cells is calculated (ID50).
From a suspension culture one hundred L 1210 cells are plated out in 35 mm culture dishes (Falcon) containing 1 ml soft agar culture medium and the compound to be investigated in suitable concentrations. The soft agar culture medium consists of Dulbecco's medium supplemented with 20% horse serum, 60 μmole 2-mercaptoethanol, 20 mg/ml L-asparagine, 75 mg/ml DEAE dextran (molecular weight 2×10^6) and 0.3% bacto agar (Difco). The culture dishes were incubated at 37° C. in an atmosphere of 10% CO2 in humidified air for 3 days. After this period of continuous exposure to the medicament the colonies were counted and dose-effect curves made. From these curves, the medicament dose is calculated which causes 50% inhibition of the colony formation as compared with non-treated control cells.

[1] = system: ribosomes from E. coli MRE600 (peptidyl transferase activity); experiment: polyphenylalanine synthesis assay, E. coli ribosomes; type: biochemical; details: concentration giving 50% inhibition relative to control; 37° C., 30 min; read-out: ED50 polyPhe synthesis E. coli
Experimental: (§3) The peptidyl transferase activity was measured by the polyphenylalanine synthesis assay (Nirenberg and Matthei, Proc. Natl. Acad. Sci. USA 47 (1961) 1588), the fragment reaction (Monro, Methods Enzymol. 20 (1971) 472) and the puromycin reaction. In all the in vitro tests, i.e. polyPhe synthesis, fragment reaction and puromycin reaction, ribosomes from E. coli MRE600 and S. cerevisiae Y166 were used. The reaction mixture for polyphenylalanine synthesis was slightly different for E. coli and S. cerevisiae.
E. coli: The reaction mixture (50 μl) contained 50 mM Tris-HCl pH 7.6, 15 mM MgCl2, 90 mM KCl, 15 mM β-mercapto ethanol, 1 mM GTP, 10 mM ATP, 0.2 mg/ml of polyuridylic acid, 1.5 mg/ml tRNA, 0.3 μM of ribosomes, 2.5 mg/ml of phosphoenol pyruvate, 20 μg/ml of pyruvate kinase, the required concentration of sparsomycin or its analogue and 5 μl of supernatant fraction S-100. Subsequently, [^3 H]phenylalanine, 30 μM (about 60 cpm/pmol) was added to start the reaction. Incubation was at 37° C. for 30 min. The reaction was stopped by the addition of 1 ml of 10% TCA and the samples were filtered through glass fiber filters. The filters were washed with 10 ml of cold 10% TCA, dried and counted for radioactivity.
(§4) The concentration of sparsomycin or an analog giving 50% inhibition of the protein synthesis relative to the control is given in ED50.

[2] = system: ribosomes from E. coli MRE600 (peptidyl transferase activity); experiment: fragment reaction, E. coli ribosomes; type: biochemical; details: 50% inhibition relative to control; 0° C., 30 min, 33% methanol; read-out: ED50 Fragment reaction E. coli
Experimental: as §3
(§5) The fragment reaction was carried out in 150 μl of 33 mM Tris-HCl pH 7.4, 270 mM KCl, 13 mM magnesium acetate containing 1 mg/ml of ribosomes, 2 mM puromycin, 1 pmol of N-acetyl-[^3 H]Leu-ACCAC(U), the required concentration of sparsomycin or its analogue and 33% methanol. The reaction was initiated by the addition of the alcohol and allowed to proceed at 0° C. for 30 min, and was then stopped by the addition of 100 μl of 0.3M sodium acetate pH 5.5 saturated with MgSO4. The samples were extracted with 1.5 ml of ethyl acetate and 1 ml of the organic phase was checked for radioactivity. The 3' terminal pentanucleotide N-acetyl-[^3 H]Leu-ACCAC(U) was prepared from N-acetyl-[^3 H]Leu-tRNA by ribonuclease T1 as described by Monro.
as §4

[3] = biological target: ribosomes from S. cerevisiae Y166 (peptidyl transferase activity); experiment: fragment reaction, S. cerevisiae ribosomes; type: biochemical; details: 50% inhibition relative to control; 0° C., 30 min, 33% methanol; read-out: ED50 Fragment reaction S. cerevisiae
Experimental: as §3, §5, §4

E. coli MRE600 = experiment: inhibition of bacterial growth; type: cell-based
Experimental: Inhibition of bacterial growth was tested in solid as well as in liquid medium. For the test on agar plates, petri dishes containing 15 ml of LB medium (10 g/l bactotryptone, 5 g/l yeast extract and 5 g/l NaCl) were covered with 5 ml of the same medium--kept melted at 40° C.--containing 40 μl of a culture of the required bacterium at approximately an A550 of 2. After solidification, 3 mm filter disks containing 4 μl of a 10 mM solution of the antibiotic in 50EtOH/DMSO were placed on the surface of the agar and the plates were incubated at 37° C. for 24 h. For the test in liquid medium, E. coli MRE600 was grown in LB medium supplemented with 0.2% of glucose to exponential phase (A560 =0.1) and distributed in 1 ml aliquots in tubes containing the required amount of antibiotic. The tubes were incubated at 37° C. for 4 h, subsequently diluted with 3 ml of 0.1% of sodium azide to stop growth and the absorption at 550 nm was measured. The absorption of the medium without addition of antibiotic was considered as 100% growth.

[4] = system: ribosomes from E. coli MRE600 (peptidyl transferase activity); experiment: puromycin reaction, E. coli ribosomes; type: biochemical; details: 50% inhibition relative to control; read-out: ED50 Puromycin reaction E. coli
Experimental: as §3
The puromycin reaction was carried out in 25 μl of 30 mM KCl, 50 mM NH4 Cl, 30 mM Tris-HCl pH 7.8, 20 mM MgCl2, 10 pmol of ribosomes, 100 μg/ml of poly(U) and 15 pmol of N-acetyl-[^3 H]Phe-tRNA. The reaction mixture was incubated for 30 min at 37° C. and then 1 μl of 20 mM puromycin was added and incubation was followed for 5 more min. To the samples 250 μl of 0.1M sodium carbonate and 0.7 ml of ethyl acetate were added, shaken for 1 min, centrifuged to separate the phases and 0.5 ml of the upper organic phase taken for estimating the radioactivity.
as §4

[5] = biological target: ribosomes from S. cerevisiae Y166 (peptidyl transferase activity); experiment: polyphenylalanine synthesis assay, S. cerevisiae ribosomes; type: biochemical; details: concentration giving 50% inhibition relative to control; 30° C., 30 min; read-out: ED50 polyPhe synthesis S. cerevisiae
Experimental: as §3
S. cerevisiae: The test was carried out as indicated above for E. coli. The phosphoenol pyruvate and pyruvate kinase were, however, replaced by creatine phosphate (20 mM) and creatine phosphokinase (50 μg/ml). The incubation was performed at 30° C. for 30 min and the samples were processed as described above. Under these conditions the control samples polymerized 5-14 and 3-8 molecules of phenylalanine per ribosome derived from E. coli and S. cerevisiae, respectively. Ribosomes and supernatant factors from E. coli and S. cerevisiae were prepared according to standard procedures, described by Staehelin and Maglott, Methods Enzymol. 20 (1971) 449, and by Sanchez-Madrid et al, Eur. J. Biochem. 98 (1979) 409.
as §4

[6] = system: RC (renal cell) carcinoma; experiment: in vivo antitumor assay, RC (renal cell) carcinoma; set-up: species or system CDF1 mice; details: for T/C (survival, treatment/control x 100%): ip daily x9, optimal dose mg/kg: sparsomycin 0.125, n-octyl 20.0, benzyl 2.7, 2a 1.1
Experimental: as §1, §2

solubility in water = type: physicochemical
[7] = female mice, ip daily x9, optimal dose mg/kg: sparsomycin 0.25, n-octyl 12.0, benzyl 10.0, 2a 2.5, 2e 13.3
[8] = female mice, ip daily x9, dose mg/kg: sparsomycin 0.25, n-octyl 12.0, benzyl 10.0, 2a 2.5, 2e 13.3
[9] = male mice, ip daily x9, dose mg/kg: sparsomycin 0.125, n-octyl 22.5, benzyl 2.0, 2e 20.0
[10] = soft agar 0.3%, 3 days continuous exposure, vs non-treated control cells
[11] = Escherichia coli, MRE600, 4 h, read-out: Growth inhibition E. coli MRE600 ED50
[12] = male mice, ip daily x9, optimal dose mg/kg: sparsomycin 0.125, n-octyl 20.0, benzyl 4.0, 2a 1.7
[13] = male mice, ip daily x9, dose mg/kg: sparsomycin 0.125, n-octyl 20.0, benzyl 4.0, 2a 1.7
[14] = male mice, ip daily x9, dose mg/kg: sparsomycin 0.125, n-octyl 20.0, benzyl 2.7, 2a 1.1

Row | SMILES | T/C (survival, treatment/control x 100%) (L1210 leukemia; [7]) | cures (survivors in groups of 6 mice) (L1210 leukemia; [8]) | weight loss (T - C) (L1210 leukemia; mouse, in vivo, ip) | T/C (survival, treatment/control x 100%) (P388 leukemia; male mice) | cures (survivors in groups of 6 mice) (P388 leukemia; [9]) | weight loss (T - C) (P388 leukemia; mouse, in vivo, ip) | LD50 (acute toxicity LD50) | IC50 (Leukemia L 1210 cells; [10]) | IC50 [1] | IC50 [2] | IC50 [3] | IC50 (E. coli MRE600; [11]) | IC50 [4] | IC50 [5] | IC50 (Leukemia L 1210 cells) | T/C (survival, treatment/control x 100%) (L1210 leukemia; [12]) | cures (survivors in groups of 6 mice) (L1210 leukemia; [13]) | T/C (survival, treatment/control x 100%) ([6]; male mice) | cures (survivors in groups of 6 mice) [6, 14] | solubility (solubility in water) | other results
1 | CCCCSC[S@+]([O-])C[C@H](C)NC(=O)/C=C/c1c(C)[nH]c(=O)[nH]c1=O [2e, (Sc Rs)-1-(n-butylthiomethyl)sulfinyl-2-[β-(6-methyl-5-uracilyl)acrylamido]-propane] | 161% | 0/6 | -0.7 g | 146% | 0/6 | -3.2 g | > 16 mg/kg | – | – | – | – | – | – | – | – | – | – | – | – | – | –
2 | CCCCCCCCSC[S@+]([O-])C[C@H](C)NC(=O)/C=C/c1c(C)[nH]c(=O)[nH]c1=O [2f, (Sc Rs)-1-(n-octylthiomethyl)sulfinyl-2-[β-(6-methyl-5-uracilyl)acrylamido]-propane] | – | – | – | – | – | – | – | 180 nM | – | – | – | – | – | – | – | – | – | – | – | – | –
3 | CSC[S@@+]([O-])C[C@H](C)NC(=O)/C=C/c1c(C)[nH]c(=O)[nH]c1=O [3a, (Sc Ss)-1-(methylthiomethyl)sulfinyl-2-[β-(6-methyl-5-uracilyl)acrylamido]-propane] | – | – | – | – | – | – | – | – | 283000 nM | 55000 nM | 68000 nM | 44000 nM | 2700 nM | 143000 nM | 550 nM | – | – | – | – | – | –
4 | Cc1[nH]c(=O)[nH]c(=O)c1/C=C/C(=O)N[C@@H](CO)C[S@@+]([O-])CSCc1ccccc1 [benzyl-sparsomycin] | 217% | 0/6 | – | 133% | 0/6 | – | 5 mg/kg | – | – | 7600 nM | 2600 nM | 1000 nM | 130 nM | 600 nM | 110 nM | 162% | 0/6 | 158% | 0/6 | 1500 µg/mL (≈ 3430 µM) | weight loss (T - C) (L1210 leukemia; [8]): -1.6 g; weight loss (T - C) (L1210 leukemia; male mice, ip daily x9 from 24 h after implant, dose mg/kg: sparsomycin 0.125, n-octyl 20.0, benzyl 4.0, 2a 1.7): -1.8 g; weight loss (T - C) [6, 14]: -1.8 g; weight loss (T - C) (P388 leukemia; [9]): -2.2 g
5 | CCCCCCCCSC[S@+]([O-])C[C@H](CO)NC(=O)/C=C/c1c(C)[nH]c(=O)[nH]c1=O [n-octyl-sparsomycin] | 153% | 0/6 | -1.9 g | 150% | 0/6 | -1.7 g | 29.5 mg/kg | 100 nM | 1600 nM | 60000 nM | 300000 nM | – | 250 nM | 1300 nM | – | 152% | 0/6 | 179% | 0/6 | ~200 µg/mL (≈ 435 µM) | weight loss (T - C) ([6]; mouse, in vivo, ip): -1.6 g; IC50 (E. coli MRE600; Escherichia coli, MRE600, 4 h; read-out: Growth inhibition E. coli MRE600 ED50): 2500 nM
